# Laboratory results taken from US20080057055A1, “OLD-35 as an inflammatory agent” (priority 2004, published 2008).
# Columns and labels:
# HeLa cells = test: Monitoring ROS production by flow cytometry (HE and DCFH-DA staining); assay type: cell-based, human; settings: Ad.hPNPase 50 pfu/cell, plus 20 mM NAC
# Description: Cell Lines, Reagents and Virus Infection protocol. The human cervical carcinoma cell line HeLa was cultured in Dulbecco's Modified Eagle Medium (DMEM) supplemented with 10% fetal calf serum, penicillin (50 units/ml) and streptomycin (50 μg/ml) at 37° C. in 5% CO2 and 100% relative humidity. N-acetyl-L-cysteine and Tiron were obtained from Sigma (St. Louis, Mo.). The recombinant replication-incompetent adenovirus expressing old-35 (Ad.hPNPase) was created in two steps as described previously and plaque purified by standard procedures (1, 28). Cells were infected with a multiplicity of infection (m.o.i.) of 1 to 50 plaque forming units (pfu)/cell of Ad.vec (control replication-incompetent adenovirus) or Ad.hPNPase as described (29).
# Monitoring ROS Production. Cells were stained with 2.5 μM hydroethidine (HE) and 5 μM 5,6-carboxy-2′,7′-dichlorofluorescein diacetate (DCFH-DA) in PBS for 30 min in the dark (32). Immediately after staining the cells were analyzed by flow cytometry (FACScan; Becton Dickinson, Mountain View, Calif.) and data were analyzed using CellQuest software, version 3.1 (Becton Dickinson). The cells were gated to exclude cell debris.
# IL-8 = test: Human IL-8 ELISA in culture supernatants; assay type: cell-based; settings: HeLa, Ad.hPNPase 50 pfu/cell; plus 20 mM NAC
# Description: (§1) Human IL-6 and IL-8 ELISA. The levels of IL-6 and IL-8 were quantified by ELISA in culture supernatants using human IL-6 ELISA kit (Pierce Biotechnology, Rockford, Ill.) and human IL-8 ELISA kit (Pierce), respectively, according to the manufacturer's protocol.
# IL-6 = test: Human IL-6 ELISA in culture supernatants; assay type: cell-based; settings: HeLa, Ad.hPNPase 50 pfu/cell; plus 20 mM NAC
# Description: as §1
# IκBα, p65 = test: Western blot of cytoplasmic and nuclear extracts; assay type: cell-based, human; settings: 20 mM NAC, 2 days post-infection
# Description: Cell Fractionation. Cells were harvested and the cytoplasm and nucleus were fractionated by the modified Schreiber's method as described (31). Briefly, the cells were washed with PBS and lysed for 10 min in Buffer A (10 mM HEPES pH 7.9, 10 mM KCl, 1.5 mM MgCl2, 1 mM EDTA, 1 mM dithiothreitol, 0.1% Nonidet P-40) containing protease inhibitor cocktail (Roche, Mannheim, Germany). After centrifugation, the supernatant was saved as the cytoplasmic fraction and the pellet containing nuclei was lysed in Buffer B (20 mM HEPES pH 7.9, 400 mM KCl, 20% glycerol, 1 mM EDTA, 1 mM DTT) containing protease inhibitor cocktail (Roche) with one freeze-thaw cycle. After centrifugation the supernatant was collected as the nuclear fraction. Protein concentration was determined by Bio-Rad protein assay kit (Bio-Rad laboratories, Hercules, Calif.).
# Preparation of Whole Cell Lysates and Western Blot Analysis. Whole cell lysates were prepared and Western blotting was performed as described (4). Briefly, cells were harvested in RIPA buffer containing protease inhibitor cocktail (Roche, Mannheim, Germany), 1 mM Na3VO4 and 50 mM NaF and centrifuged at 12,000 rpm for 10 min at 4° C. The supernatant was used as total cell lysate. Thirty μg of total cell lysate were used for SDS-PAGE and transferred to a nitrocellulose membrane. […]
# c-myc mRNA = test: Half-life of c-myc mRNA (Actinomycin D, Northern blot); assay type: cell-based, human; settings: HO-1 clones expressing the siRNA, compared to control untreated cells
# Description: RNA Isolation and Northern Blot Analysis: Total RNA was extracted from cells using Qiagen RNeasy mini kit (Qiagen) according to the manufacturer's protocol and Northern blotting was performed as described (102). The cDNA probes used were a 400-bp fragment from human c-myc, a 500-bp fragment from hPNPase^old-35 and full-length human GAPDH.
# HO-1 cells [1] = test: MTT cell viability assay; assay type: cell-based, human; settings: HO-1 clones, more pronounced after 6 days
# Description: (§2) Transfection of siRNA: Cells (5×10^5) were plated in a 6 cm dish and the next day were transfected with 25 nM of either control siRNA or c-myc siRNA (Ambion; catalogue# 4250) using Lipofectamine 2000 (Invitrogen) according to the Manufacturer's protocol. After 24 h, the cells were trypsinized and seeded into 96-well plates for cell viability assays and 6-cm dishes for colony formation assays and cell cycle analyses as described above.
# HO-1 cells [2] = test: Colony formation assay with IFN-β; assay type: cell-based, human; settings: HO-1 clones
# Description: as §2
# [3] = tested on: hPNPase^OLD-35 and Myc proteins; test: Western blot after IFN-β treatment or siRNA; assay type: cell-based, human
# [4] = tested on: HO-1, WM-35, MeWo and FM-516 cells; test: Cell cycle analysis by flow cytometry after IFN-β; assay type: cell-based, human; settings: HO-1 clones, IFN-β 1000 U/ml
# Description: Cell Cycle Analysis: Cells were harvested, washed in PBS and fixed overnight at −20° C. in 70% ethanol. The cells were treated with RNase A (1 mg/ml) at 37° C. for 30 min and then with propidium iodide (50 μg/ml). Cell cycle was analyzed using a FACScan flow cytometer and data were analyzed using CellQuest software (Becton Dickinson, San Jose, Calif.).
Molecule,percentage of high ROS containing cells (HeLa cells; 24 hr),percentage of high ROS containing cells (HeLa cells; 36 hr),secreted IL-8 in culture supernatant (IL-8),secreted IL-6 in culture supernatant (IL-6),"degradation of IκBα and nuclear translocation of p65 by Ad.hPNPase^old-35 infection (IκBα, p65)",half-life of c-myc mRNA after IFN-β (c-myc mRNA),response of siRNA expressing clones to IFN-β (MTT) (HO-1 cells [1]),response of siRNA expressing clones to IFN-β-induced inhibition of colony formation (HO-1 cells [2]),"inhibition in hPNPase^OLD-35 induction by IFN-β ([3]; HO-1 clone 1 expressing the siRNA, IFN-β 1000 U/ml, 2 days)","ability to downregulate Myc in response to IFN-β ([3]; HO-1 clones 1, 4 and 5 expressing the siRNA)",response of siRNA expressing clones to growth inhibition by IFN-β (cell cycle) [4]
"CC(=O)N[C@@H](CS)C(=O)O [NAC, N-acetyl-L-cysteine]",~2%,~3%,markedly inhibited,markedly inhibited,inhibited,,,,,,
"hPNPase^old-35-siRNA: lentivirus-expressed siRNA for hPNPase^old-35, sequence 5′ AACAAAACCTTCCCCTTCCCA 3′ (SEQ ID NO:40)",,,,,,remained unchanged,significant resistance,significant resistance,~100%,lost this ability,remarkable resistance
